Read-outs that look alike come from different tables or passages of the source. Values belong to the compound of their own block, whether it stands above or below them.
Assays:
[1] = target: T1, αvβ3 integrins on human GBM (U87 MG) cell (Homo sapiens, UniProt P05106+P06756); experiment: Competition assay against [^64Cu]Cu-NOTA-c(RGDfK) on U87 MG cells; format: binding; settings: in competition to [^64Cu]Cu-NOTA-c(RGDfK), 1 h incubation
T1 construct: host or cells: U87 MG

[2] = set-up: method as in PMID 30023392; settings: daily cisplatin for 5 days before radiation ref 24; cited from earlier work
[3] = system: SVG p12 normal glial cells
U87 MG cells = experiment: cells; format: cell-based, human; settings: U87 MG
Protocol: In this procedure, U87 MG (2 × 10^4 cells per well) were seeded in BD falcon transparent 96-well plates and incubated for 24 h.

IC50 [1]: 0.0106 ± 0.0032 µM
SMILES: N=C(N)NCCC[C@@H]1NC(=O)[C@H](CCCCNC(=O)CNC(=O)COCCOCCNC(=O)CN2CCN(CC(=O)O)CCN(CC(=O)O)CC2)NC(=O)[C@@H](Cc2ccccc2)NC(=O)[C@H](CC(=O)O)NC(=O)CNC1=O [^natCu-NOTA-c(RGDfK), metal not drawn]

SMILES: N.N.[Cl][Pt][Cl] [Cisplatin]
increase of treatment efficacy compared to radiotherapy alone [2]: 35% | EC50 [3]: 15 ± 5 µM | EC50 ([3]; read-out: EC50 24 h SVG p12, 24 h, SVG p12): 35 ± 4 µM | EC50 ([3]; read-out: EC50 48 h SVG p12, 48 h, SVG p12): 15 ± 7 µM | EC50 (U87 MG cells; 24 h, read-out: EC50 24 h U87 MG): 90 ± 8 µM | EC50 (U87 MG cells; 48 h, read-out: EC50 48 h U87 MG): 25 ± 6 µM | EC50 (U87 MG cells; 72 h, read-out: EC50 72 h U87 MG): 20 ± 5 µM

From publication PMC12384813
